Assay results taken from US6455526B1, “Biodegradable polymer encapsulated pharmaceutical compositions and method for preparing the same” (Aventis Pharmaceuticals, Inc., priority 1998, dated 2002).

Columns and labels:
Male Wistar rats = assay: Chronic Mild Stress Model of Depression (CMS), sucrose intake; assay type: in vivo, rat; details: for Sucrose intake in control animals / Sucrose intake in stressed animals: five weeks; for Sucrose intake in stressed animals: treatment effect
Description: CMS uses mild stressors, such as food and water deprivation, cage tilts, changes of cage mates, etc. Over a period of weeks of exposure to the mild stressors, the animals gradually reduce their consumption of a highly preferred sucrose solution which persists (in untreated animals) for several weeks following the cessation of stress. This decreased sensitivity to reward (the sucrose solution) reflects anhedonia, a symptom of a Major Depressive Episode (see for example, Behavioral Pharmacol. 5: Suppl.1, p. 86 (1994) where lithium, carbamazepine and ketoconazole were evaluated in CMS; Psychopharmacology 93:358-364 (1987) where a tricyclic antidepressant was evaluated in CMS; Behavioral Pharmacology: 5:344-350 (1994) where a catechol-O-methyl transferase inhibitor was evaluated in CMS).
Male Wistar rats were brought into the laboratory two months before the start of the experiment at which time they weighed approximately 300 grams. Except as described below, the animals were singly housed, with food and water freely available, and maintained on a 12 hour light/dark cycle (lights on at 8AM) at a temperature of about 22° C.
The animals were first trained to consume a 1% sucrose solution; training consisted of eight 1 hour baseline tests in which sucrose was presented, in the home cage, following 14 hours food and water deprivation; intake was measured by weighing pre-weighed bottles containing the sucrose solution at the end of the test. Subsequently, sucrose consumption was monitored, under similar conditions, at weekly intervals throughout the whole experiment.
On the basis of their sucrose intakes in the final baseline test, the animals were divided into two matched groups. One group of animals was subjected to a chronic mild stress procedure for a period of 9 consecutive weeks. Each week of stress regime consisted of: two periods of food or water deprivation (12 and 14 hour), two periods of 45 degree cage tilt (12 and 14 hour+), two periods of intermittent overnight illumination (lights on and off every 2 hours), two 14 hour periods of soiled cage (200 ml water in sawdust bedding), two 14 hour periods of paired housing, two 14 hour periods of low intensity stroboscopic illumination (150 flashes/min). Stressors were applied continuously throughout the day and night, and scheduled randomly. Control animals were housed in a separate room and had no contract with the stressed animals. They were deprived of food and water for the 14 hours preceding each sucrose test, but otherwise food and water were freely available in the home cage. On the basis of their sucrose intake scores following 3 weeks of stress, both stressed and control animals were each divided further into matched subgroups (n=8), and for subsequent five weeks they received daily administrations of vehicle (1 ml/kg, intraperitoneally (ip)) imipramine (10 mg/kg, ip) or MDL 100,907 (0.002, 0.02 and 0.2 mg/kg orally). All drug injections were in a volume of 1 ml/kg body weight. Drugs were administered at 10AM and sucrose tests were carried out 24 hours following the last drug treatment. After five weeks, the treatments were terminated and after one week of withdrawal a final sucrose test was carried out. Stress was continued throughout the period of treatment and withdrawal.
Results were analyzed by multiple analysis of variance, followed by Fisher's LSD test for post hoc comparisons of means.

myocardial tissue = details: cited from earlier work
[1] = system: amphetamine-stimulated locomotion; details: in vivo; cited from earlier work
[2] = system: A10 vs. A9 neuronal activity; details: after chronic administration; cited from earlier work
prepulse inhibition = details: cited from earlier work
[3] = 0.002, 0.02 and 0.2 mg/kg orally daily

SMILES | Sucrose intake in control animals (Male Wistar rats; 10 mg/kg, ip daily) | Sucrose intake in stressed animals (Male Wistar rats; 10 mg/kg, ip daily) | Sucrose intake of drug-treated stressed animals vs drug- and saline-treated controls (Male Wistar rats; 10 mg/kg, ip, after five weeks of treatment) | Sucrose intake in stressed animals vs Week 0 scores (Male Wistar rats; 10 mg/kg, ip, after four weeks of treatment) | Increase of sucrose intake in stressed animals after withdrawal (Male Wistar rats; 10 mg/kg, ip, one week after withdrawal) | Sucrose intake in stressed animals throughout the whole treatment period (Male Wistar rats; 0.002 mg/kg orally) | Sucrose solution drunk by stressed animals at end of treatment (Week 5) (Male Wistar rats; 0.02 mg/kg orally) | Sucrose intake in stressed animals vs initial scores (Week 0) (Male Wistar rats; 0.02 mg/kg orally, after two weeks of treatment) | Sucrose solution drunk by stressed animals at end of treatment (Week 5) (Male Wistar rats; 0.2 mg/kg orally) | Sucrose intake in stressed animals vs initial scores (Week 0) (Male Wistar rats; 0.2 mg/kg orally, after three weeks of treatment) | Sucrose intake in control animals one week after withdrawal (Male Wistar rats; 0.002, 0.02, 0.2 mg/kg orally) | Sucrose intake in stressed animals one week after withdrawal (Male Wistar rats; 0.002, 0.02, 0.2 mg/kg orally) | Sucrose intake in control animals (Male Wistar rats; [3]) | Sucrose intake in stressed animals (Male Wistar rats; [3]) | Duration of the action potential of myocardial tissue (myocardial tissue) | Amphetamine-stimulated locomotion [1] | Effects on A10 vs. A9 neuronal activity [2] | Disrupted PPI (prepulse inhibition) (prepulse inhibition; disruption produced by 5HT agonists in Wistar rats) | 5-HT2 agonist-induced deficits in prepulse inhibition and latent inhibition (prepulse inhibition; rat, in vivo)
CN(C)CCCN1c2ccccc2CCc2ccccc21 [Imipramine, reference compound] | no significant effect | gradual increase of sucrose intake | no significant differences | significantly increased | maintained at similar level |  |  |  |  |  |  |  |  |  |  |  |  |  | 
COc1cccc(C(O)C2CCN(CCc3ccc(F)cc3)CC2)c1OC (stereo not drawn) [MDL 100,907, (+)-α-(2,3-dimethoxyphenyl)-1-[2-(4-fluorophenyl)ethyl]-4-piperidinemethanol] |  |  |  |  |  | no significant effect | comparable to that of vehicle-treated controls | significantly increased | comparable to that of vehicle-treated controls | significantly increased | not significantly changed | not significantly changed | no significant effect | gradually reversed the CMS-induced deficit in sucrose intake | increases | blockade | selective effects | restore disrupted PPI | reversal
